Data taken from article PMC12643529 (ACS Infectious Diseases, 2025).
Where two headings read alike, the source gives them in different places.

How the values were obtained:
[1] = system: intracellular amastigote form of L. major; experiment: Luciferase assay, intracellular amastigotes in THP-1 macrophages; format: cell-based, Leishmania major; conditions: Leishmania major
Procedure: The antileishmanial activity of the compounds against the intracellular form of L. major was evaluated using the Luciferase Assay System kit from Promega. THP-1 cells were seeded at a density of 3 × 10^5 cells/mL in 96-well plates (100 μL/well) and treated with 20 ng/mL PMA (phorbol 12-myristate 13-acetate, Sigma) for 48 h to induce differentiation. Postdifferentiation, the cells were washed, and fresh medium was added (100 μL/well) before being reincubated. Following an additional 24 h, the wells were washed, and 50 μL of L. major parasites at a density of 1.5 × 10^6 parasites/mL (suspended in RPMI-1640 medium 5% hiFBS and 5% penicillin/streptomycin) were added to the wells. The plates were then incubated at 35 °C in 5% CO2. After 24 h, the wells were washed three times with PBS, and fresh medium with increasing concentrations of compounds was added (100 μL/well). After another 72 h of incubation, the cells were then treated with 25 μL of lysis buffer and stored at −80 °C. Following 24 h, 25 μL of luciferase enzyme substrate was added to each well, and the luciferase activity of the amastigotes was determined using a TECAN Infinite F200 microplate reader. […] Data were presented as the average of at least three independent measurements, each conducted under triplicate conditions.
Parasite and cell culturing […]
Leishmania major (MHOM/IL/80/Friedlin) promastigotes and its derivative luminescent strain L. major LucRE9 with the luciferase gene integrated into the parasite genome (LUC) were cultured at 28 °C, 5 % CO2 in modified RPMI-1640 medium (Invitrogen, Carlsbad, CA) supplemented with 10 % hiFBS6, including […] blasticidin in the LucRE9 strain. 7 Parasites were maintained in culture in their […] growth phase (below 2 million T. brucei parasites per mL, ,10 million L. major parasites per mL for promastigotes experiments), and in the stationary phase , 20 million L. major parasites per mL for THP -1 infection experiments.
MRC-5 cell line (human lung fibroblast) was grown in monolayer at 37 °C, 5 % CO2 in DMEM medium (1 g/L glucose) supplemented with 10% hiFBS, 100 U/mL penicillin, […] streptomycin and 2 mM L-glutamine.8
THP-1 cells (human monocytic cell line) were maintained in RPMI-1640 medium supplemented with 10% heat-inactivated fetal bovine serum (hiFBS) and 5 % penicillin/streptomycin (37 °C, 5 % CO2, and 100 % humidity). […]

BSF T. brucei parasites = experiment: CellTiter-Glo luminescent cell viability assay; format: cell-based; conditions: Trypanosoma brucei, 72 h, read-out: IC50 T. brucei (CellTiter-Glo)
Procedure: Ten μL portion of Cell Titer Glo was then added to every well, and after 10 min of incubation at room temperature, the luminescence of the plates was recorded using the Infinite F200 plate reader (TECAN Austria, GmbH). […] Presented data are the mean value of three independent measurements, all of them conducted under triplicate conditions.

[2] = system: FMycT (c-Myc promoter G4); experiment: FRET melting assay, FMycT; format: binding; conditions: oligonucleotide 200 nM
[3] = system: Fmt6363T (human mitochondrial G-quadruplex); experiment: FRET melting assay, Fmt6363T; format: binding; conditions: oligonucleotide 200 nM
[4] = system: F21T Na+ (human telomeric G-quadruplex, sodium buffer); format: binding; conditions: oligonucleotide 200 nM
HeLa cells = experiment: alamarBlue antiproliferative assay, HeLa; format: cell-based, human; conditions: Homo sapiens, HeLa; 72 h, alamarBlue
THP-1 cells = experiment: alamarBlue cytotoxicity assay, PMA-differentiated THP-1; format: cell-based, human; conditions: Homo sapiens, PMA-differentiated THP-1, 72 h
mt6363 G4 = experiment: UV-vis absorbance titration; format: binding, human; conditions: ligand 10 μM, 100 mM potassium phosphate, pH 7.4; numbers only in Figure 6
Procedure: Furthermore, the analysis confirmed its selectivity for G4 structures over duplex DNA.
6 (A) Equilibrium binding constants calculated for compounds 2b and 2c with several G-quadruplexes (telo23, Ebr1, and mt6363) and a duplex DNA (ds26) sequence. (B) UV–vis titration of 2b with telo23, mt6363, Ebr1, and ds26. Buffer = 100 mM potassium phosphate, pH 7.4. Ligand concentration: 10 μM. […]
oligonucleotides were at a concentration of 5 µM in potassium phosphate buffer (100 mM, pH 7.4). Data processing was carried out using Python and Prism 10 (GraphPad Software) with a 4-point second order smoothing polynomial applied to all spectra. Observed ellipticities were converted to molar ellipticity.
Absorbance spectra were recorded on a Cary 60 UV-Visible spectrophotometer using a room-light immune fibre optic probe with 10 mm path length. The UV-Vis spectra were recorded between 700 – 300 nm and were corrected for background and buffer absorbance.
In the titrations, the concentration of ligand was fixed at 10 µM in an initial volume of 500 µL in potassium phosphate buffer (100 mM, pH 7.4). […]
Table S1. Synthesis and photophysical data in acetonitrile solution (absorption, λabs, fluorescence emission maxima, λfluo, molar absorptivity, Ɛ and fluorescence quantum yield, ɸF) for the 2-ethenyl-benzothiazolium derivatives 2a-j. […]

[5] = system: Fmt6363T (DNA, G4) AGGGACGCGGGCGGGGGATATAGGGT; experiment: FRET melting; conditions: K+ (10 mM KCl), 90 mM LiCl; 10 mM Li cacodylate; compound 10 µM, DNA 200 nM
[6] = system: bloodstream form of T. brucei; experiment: alamarBlue (resazurin) antitrypanosomal assay; format: cell-based, Trypanosoma brucei; conditions: Trypanosoma brucei; bloodstream form, 72 h, alamarBlue/resazurin; error as σ
[7] = system: mt6363 (DNA, G4) AGGGACGCGGGCGGGGGATATAGGGT; experiment: CD titration; conditions: K+ (100 mM potassium phosphate); pH 7.4, 20 °C, DNA 5 µM
HT-29 cells = experiment: alamarBlue antiproliferative assay, HT-29; format: cell-based, human; conditions: Homo sapiens, HT-29; 72 h, alamarBlue
[8] = system: FEbr1T (T. brucei G-quadruplex); experiment: FRET melting assay, FEbr1T; format: binding; conditions: oligonucleotide 200 nM
[9] = system: Ebr1 (DNA, G4) GGGCAGGGGGTGATGGGGAGGAGCCAGGG; experiment: CD titration; conditions: K+ (100 mM potassium phosphate); pH 7.4, 20 °C, DNA 5 µM
[10] = system: F10T (DNA, hairpin, hexaethylene glycol (HEG, [(-CH2CH2O-)6]) linker between 10 and 11) TATAGCTATATATAGCTATA; experiment: FRET melting; conditions: K+ (10 mM KCl), 90 mM LiCl; 10 mM Li cacodylate; compound 10 µM, DNA 200 nM
[11] = system: telo23 (DNA, G4) TAGGGTTAGGGTTAGGGTTAGGG; experiment: CD titration; conditions: K+ (100 mM potassium phosphate); pH 7.4, 20 °C, DNA 5 µM
[12] = system: F21T K+ (human telomeric G-quadruplex, potassium buffer); format: binding; conditions: oligonucleotide 200 nM
[13] = system: F10T (hairpin duplex DNA); format: binding; conditions: oligonucleotide 200 nM
[14] = system: FEbr1T (DNA, G4) GGGCAGGGGGTGATGGGGAGGAGCCAGGG; experiment: FRET melting; conditions: K+ (10 mM KCl), 90 mM LiCl; 10 mM Li cacodylate; compound 10 µM, DNA 200 nM
[15] = system: F21T (DNA, G4) GGGTTAGGGTTAGGGTTAGGG; experiment: FRET melting; conditions: K+ (10 mM KCl), 90 mM LiCl; 10 mM Li cacodylate; compound 10 µM, DNA 200 nM
[16] = system: promastigote form of L. major; experiment: MTT-based antileishmanial assay, promastigotes; format: cell-based, Leishmania major; conditions: Leishmania major; promastigotes, 72 h, MTT; error as σ
Procedure: The antileishmanial activity of the compounds against the promastigote form of L. major, the […] was determined using an MTT-based assay (Sigma-Aldrich). Stock solutions of the compounds were prepared in DMSO with the final DMSO percentage in each well maintained below 1%. 4 × 10^6 parasites per mL were incubated at 28 °C in 96-well plates (50 μL/well) either alone or in the presence of increasing concentrations of compounds DMSO for 72 h. After the incubation period, 10 μL of MTT (5 mg/mL) was added to each well, and the parasites were incubated for 4 h at 28 °C. Subsequently, cell lysis was performed using 50 μL/well of 20% SDS. […] Data were presented as the average of at least three independent measurements, each conducted under triplicate conditions. […] “single marker” […] S7

MRC-5 cells [17] = experiment: alamarBlue cytotoxicity assay, MRC-5; format: cell-based; conditions: MRC5, human lung fibroblasts, 72 h
other G4 sequences = experiment: FRET melting assay, other examined G4s; format: binding; conditions: ligand 10 μM; range over the remaining G4s
Procedure: The stabilization of G4 structures was initially evaluated by using the Förster resonance energy transfer (FRET) melting assay. This analysis evaluated the binding of the compounds against four G4-forming oligonucleotides and a hairpin duplex sequence to determine both G4:duplex and G4:G4 selectivity.
FRET melting assays were performed to assess ligand affinity for duplex and G-quadruplex DNA.
proximity of the donor and quencher result in no observed fluorescence from FAM, since energy
is transferred non-radiatively to TAMRA by FRET. As the temperature is raised and the secondary
structure denatures, the fluorophores move further apart and the fluorescence signal increases.
From the resulting curve, the characteristic melting temperature (Tmax, also referred to as Tm) is
defined as the temperature which corresponds to the maxima of the first derivative of the
normalised fluorescence signal. The change in melting temperature (ΔTm) induced by the presence
of a small molecule ligand provides an indication of the ligand’s ability to stabilise the DNA
co-workers 12 on an AriaMx qPCR instrument.
min, before heating at 1 °C/min to 96 °C in 1 °C increments, followed by monitoring the
fluorescence output at each increment for 1 min. The fluorescence emission of FAM was followed
The final concentration of oligonucleotide was 200 nM in all cases. For F21T in Na+ conditions, […]

[18] = system: bloodstream form of T. brucei; set-up: method as in number not given; conditions: footnote c 'From ref', ref number not given; cited from earlier work
MRC-5 cells [19] = system: MRC-5 cells; set-up: method as in number not given; conditions: footnote c 'From ref', ref number not given; cited from earlier work
[20] = system: promastigote form of L. major; set-up: method as in number not given; conditions: promastigotes; footnote c 'From ref', ref number not given; cited from earlier work

SMILES: CN(C)c1ccc(/C=C/c2sc3ccccc3[n+]2C)cc1.[I-] [compound 2b]
- IC50 ([1]; THP-1, intracellular amastigotes): 0.48 nM
- IC50 ([1]; intracellular amastigotes in THP-1 macrophages, 72 h, luciferase): 0.484 ± 0.617 nM
- IC50 (BSF T. brucei parasites): 0.55 ± 0.23 nM
- ΔTm FMycT ([2]; ligand 10 μM, 1 mM KCl): 8.6 ± 0.9 °C
- ΔTm Fmt6363T ([3]; ligand 10 μM, 10 mM KCl): 19.8 °C
- ΔTm F21T Na+ ([4]; ligand 10 μM, 100 mM NaCl): 9.1 ± 0.3 °C
- IC50 (HeLa cells): 9280 ± 770 nM
- IC50 (THP-1 cells): 480 ± 110 nM
- binding affinity (equilibrium binding constant) (mt6363 G4): higher affinity for the mt6363 G4 structure compared with the other G4 sequences
- ΔTm [5]: 19.8 ± 0.4 °C
- IC50 [6]: 0.019 ± 0.0053 nM
- binding [7]: yes
- IC50 (HT-29 cells): 6560 ± 490 nM
- ΔTm FEbr1T ([8]; ligand 10 μM, 10 mM KCl): 13.1 °C
- binding [9]: yes
- ΔTm [10]: 2.3 ± 0.2 °C
- binding [11]: yes
- ΔTm F21T K+ ([12]; ligand 10 μM, 10 mM KCl): 13.1 ± 0.5 °C
- ΔTm F10T ([13]; ligand 10 μM, 10 mM KCl): 2.3 ± 0.2 °C

SMILES: Cc1ccc2c(c1)sc(-c1ccc(N(C)C)cc1)[n+]2C [ThT, Thioflavin T, reference compound]
- IC50 (BSF T. brucei parasites; BSF parasites, luminescence): 62 ± 3 nM
- ΔTm FMycT ([2]; ligand 10 μM, 1 mM KCl): 15.0 °C
- ΔTm [14]: 4.5 ± 0.7 °C
- ΔTm Fmt6363T ([3]; ligand 10 μM, 10 mM KCl): 2.9 ± 0.4 °C
- ΔTm F21T Na+ ([4]; ligand 10 μM, 100 mM NaCl): 1.4 ± 0.2 °C
- ΔTm [15]: 5.5 ± 0.2 °C
- ΔTm [5]: 2.9 ± 0.4 °C
- IC50 [6]: 4.7 ± 0.3 nM
- ΔTm FEbr1T ([8]; ligand 10 μM, 10 mM KCl): 4.5 ± 0.7 °C
- IC50 [16]: 23 ± 0.2 nM
- IC50 (MRC-5 cells [17]): 183 ± 38 nM
- ΔTm [10]: 0.1 ± 0.1 °C
- ΔTm for the other examined G4 sequences (other G4 sequences): 1.4–5.5 °C
- ΔTm F21T K+ ([12]; ligand 10 μM, 10 mM KCl): 5.5 ± 0.2 °C
- ΔTm F10T ([13]; ligand 10 μM, 10 mM KCl): 0.1 ± 0.1 °C

SMILES: C[n+]1ccc(-c2c3nc(c(-c4cc[n+](C)cc4)c4ccc([nH]4)c(-c4cc[n+](C)cc4)c4ccc([nH]4)c(-c4cc[n+](C)cc4)c4nc2C=C4)C=C3)cc1 [TMPyP4, reference compound]
- IC50 [18]: > 10000 nM
- ΔTm FMycT ([2]; positive control at 1 μM): 12.6 ± 1.1 °C
- ΔTm Fmt6363T ([3]; positive control at 1 μM): 7.1 ± 0.4 °C
- ΔTm F21T Na+ ([4]; positive control at 1 μM): 10.4 ± 0.4 °C
- IC50 (MRC-5 cells [19]): > 25000 nM
- ΔTm FEbr1T ([8]; positive control at 1 μM): 12.4 ± 0.9 °C
- ΔTm F21T K+ ([12]; positive control at 1 μM): 16.4 ± 0.4 °C
- IC50 [20]: 20800 ± 4860 nM
- ΔTm F10T ([13]; positive control at 1 μM): 1.7 ± 0.1 °C
